Measurements from patent US9644019B2, “Compounds for treating cardiac damage after ischaemia/reperfusion” (priority 2010, dated 2017).
No end group written: not given here.

Assays:
EMMPRIN promoter = EMMPRIN promoter luciferase reporter (pEMMPRIN-WT), transient transfection of cardiomyocytes; type: cell-based, mouse; settings: for EMMPRIN promoter transcriptional activity: cardiomyocytes transiently transfected with pEMMPRIN-WT
Protocol: To clone the mouse EMMPRIN promoter, commercial chromosome BAC CH29-603O5 (which contains part of murine chromosome 10), from CHORI (Children's Hospital Oakland Research Institute) was used as a template in PCR reactions with the following oligonucleotides:
The resulting PCR fragment was cloned into the pGL3-Basic vector (Promega) at 5′ position to the luciferase reporter gene (hereinafter referred to as pEMMPRIN-WT).
The transient DNA transfection experiments were carried out by means of using the LIPOFECTAMINE (catatonic-lipid transfection reagent) 2000 reagent as previously described by the manufacturer. The luciferase content in the transfected cells was measured as previously described [Zaragoza C et al. Molecular pharmacology 2002; 62:927-935]. In summary, the cells were transiently transfected with 1 microgram of DNA and 10 μl of LIPOFECTAMINE (catatonic-lipid transfection reagent) 2000 in OPTIMEM culture medium (a modification of Eagle's Minimum Essential Media, buffered with HEPES and sodium bicarbonate, and supplemented with hypoxanthine, thymidine, sodium pyruvate, L-glutamine, trace elements, and growth factors) for 4 hours, after which time they were washed and incubated with fresh culture medium (MEM/10% FCS) for 16 hours. Furthermore, as a control, the cells were co-transfected with a plasmid containing the constitutively active promoter of cytomegalovirus fused with the R-Luciferase gene (Renilla), used as a control. Each sample was therefore evaluated for the content of both P-(firefly) and R-luciferase. […] of the gene product of the reporter gene of the co-transfected control plasmid. The results were normalized for R-Luciferase content.
To analyze in depth the repressive effect of NO on the EMMPRIN transcription, the first 1000 bps of the regulatory region of the EMMPRIN gene, fused to the luciferase reporter gene (pEMMPRIN-WT), were cloned.

[1] = test system: MAEC cells (mouse aortic endothelial cells); test: Internalization of AP-9 nanoparticles by MAEC cells and co-localization with EMMPRIN; type: cell-based; settings: for internalization into MAEC cells: overnight incubation
Protocol: The MAEC cells were incubated overnight with the AP-9 nanoparticles (NP-AP-9) (20 μg/ml) (right panel) or with non-loaded nanoparticles (NP-NT) (left panel). The MAEC cells were fixed, and EMMPRIN expression was detected using an anti-EMMPRIN antibody. Co-localization between the NP-AP-9 signal and the EMMPRIN signal was found in MAEC cells treated with NP-AP-9 (right panel), but this co-localization was not found in the control nanoparticles. The cores were stained with DAPI.
The MAEC cells were cultured in a black 96-well plate and incubated overnight with different concentrations of nanoparticles loaded with AP-9 (NP-AP9) or nanoparticles without AP-9 (NP-NT). Fluorescence was measured using an IVIS imaging system. The graph on the right represents the intensity of the fluorescence signal of the image on the left.
Nanoparticles containing AP-9 have therapeutic value, because EMMPRIN is inhibited and tissue damage due to proteolytic enzyme activation is reduced.

EMMPRIN mRNA [2] = test: EMMPRIN mRNA, quantitative real-time RT-PCR in HL1 cardiomyocytes; type: cell-based, mouse; settings: cardiomyocytes in culture, 100 μM DETA-NO
Protocol: (§1) (A) Quantitative real-time RT-PCR showing EMMPRIN expression in the hearts of wild-type and iNOS knockout animals after ischemia/reperfusion (n=3 in triplicate, mean±SD *p<0.05 vs iNOS null−). (B) Quantitative real-time RT-PCR showing EMMPRIN expression in HL1 cardiomyocytes in response to the exogenous administration of 100 μM DETA-NO (n=3, mean±SD *p<0.05). (C) Quantitative real-time RT-PCR showing EMMPRIN expression in RAW […] macrophages in culture in response to the exogenous administration of 100 μM of DETA-NO, endogenous NO production (50 μM LPS), or iNOS inhibition by means of adding 100 μM 1400W (n=3 mean±SD). (D) Stability assay of EMMPRIN mRNA in HL-1 cardiomyocytes (left) and in RAW […] macrophages (right) (n=3, mean±SD *p<0.05).
(§2) The HL1 cardiomyocyte cell line was donated by Dr. Antonio Bernad and cultured as described [Ruiz-Meana M et al. Cardiovascular research 2006; 71:715-724]. The RAW […] murine macrophage line was cultured as described [Tarin C et al. Arteriosclerosis, thrombosis, and vascular biology 2009; 29:27-32].

EMMPRIN mRNA [3] = test: EMMPRIN mRNA, quantitative real-time RT-PCR in RAW macrophages; type: cell-based, murine; settings: RAW macrophage cell line, 100 μM DETA-NO
Protocol: as §1, §2

EMMPRIN mRNA [4] = test: EMMPRIN mRNA stability assay (actinomycin D) in HL-1 cardiomyocytes; type: cell-based, mouse; settings: cardiomyocyte cell line, over time
Protocol: (§3) For this assay, cells were incubated in wells […] in diameter and incubated in the presence of 10 μM of actinomycin D for 16 hours, after which time the cells were treated with diethylenetriamine-NO (DETA-NO) at different times. The RNA of the different experiment times was isolated and both for EMMPRIN and for GAPDH (as a control), their mRNAs were evaluated by means of quantitative real-time RT-PCR.

EMMPRIN mRNA [5] = test: EMMPRIN mRNA stability assay (actinomycin D) in RAW macrophages; type: cell-based, murine
Protocol: as §3

iNOS = biological target: T1, iNOS (Mus musculus, UniProt P29477); test: Coronary ischemia/reperfusion with pharmacological iNOS inhibition in iNOS wild-type mice; type: in vivo
T1 construct: tissue The Jackson Laboratories (mice); host or cells: living wild-type mice; heart after coronary ischemia/reperfusion
T1 sequence (P29477 1-1144): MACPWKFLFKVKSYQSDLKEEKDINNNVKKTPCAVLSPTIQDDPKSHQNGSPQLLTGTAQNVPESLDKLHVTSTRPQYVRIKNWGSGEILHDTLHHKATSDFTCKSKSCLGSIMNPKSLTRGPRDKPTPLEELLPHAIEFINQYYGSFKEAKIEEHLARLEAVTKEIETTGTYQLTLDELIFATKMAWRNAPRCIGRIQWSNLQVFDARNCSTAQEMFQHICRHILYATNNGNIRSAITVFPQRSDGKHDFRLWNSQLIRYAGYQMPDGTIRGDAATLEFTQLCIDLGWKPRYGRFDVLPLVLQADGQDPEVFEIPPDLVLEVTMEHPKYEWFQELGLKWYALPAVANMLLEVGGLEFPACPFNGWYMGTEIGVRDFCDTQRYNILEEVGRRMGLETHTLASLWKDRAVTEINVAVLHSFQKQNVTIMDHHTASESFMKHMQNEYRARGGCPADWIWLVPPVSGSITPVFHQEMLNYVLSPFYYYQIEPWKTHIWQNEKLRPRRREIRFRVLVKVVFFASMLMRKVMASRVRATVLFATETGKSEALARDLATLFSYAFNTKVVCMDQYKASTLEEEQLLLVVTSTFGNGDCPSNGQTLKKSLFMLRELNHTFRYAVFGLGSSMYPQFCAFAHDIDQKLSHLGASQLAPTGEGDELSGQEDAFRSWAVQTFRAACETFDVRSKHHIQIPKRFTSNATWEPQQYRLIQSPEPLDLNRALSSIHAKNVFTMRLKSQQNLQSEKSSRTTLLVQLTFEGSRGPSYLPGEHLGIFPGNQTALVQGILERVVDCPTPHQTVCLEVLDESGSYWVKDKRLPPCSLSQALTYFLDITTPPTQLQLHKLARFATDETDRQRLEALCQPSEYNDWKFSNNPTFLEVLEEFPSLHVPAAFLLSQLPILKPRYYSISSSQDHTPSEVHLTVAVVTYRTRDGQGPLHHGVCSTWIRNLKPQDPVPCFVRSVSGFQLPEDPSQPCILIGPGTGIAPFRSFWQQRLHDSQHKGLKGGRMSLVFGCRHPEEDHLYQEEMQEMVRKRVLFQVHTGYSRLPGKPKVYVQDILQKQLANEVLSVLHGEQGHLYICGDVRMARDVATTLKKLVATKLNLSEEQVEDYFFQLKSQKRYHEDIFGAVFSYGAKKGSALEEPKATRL
Protocol: Ischemia was induced by means of the coronary artery ligation in the manner detailed below: twelve week old mice were anesthetized intraperitoneally by means of using ketamine/xylazine (100 mg/kg/10 mg/kg, respectively), intubated with a 1 mm steel tube, and ventilated (2 ml, 80 pulses/minute). After this process, the chest of the mice was opened between the second and third ribs, being kept open by means of the aid of a retractor for mice. The pericardium was then opened to subsequently temporarily ligate the left coronary artery in a region close to its branch by means of using a 6-0 silk suture and for a period of 30 minutes. Evidence of coronary occlusion was clearly shown by means of the discoloration of the left ventricle after the arterial ligation. After 30 minutes, the ligation is removed, the chest closed and the skin sutured. Additionally, a group of control animals (sham) were included in the assays, in which the same method was carried out with the exception of the coronary artery occlusion. To inhibit iNOS in vivo, the iNOS wild-type mice were injected in the tail vein with 2 mg/kg/day of the pharmacological inhibitor of iNOS, 1400W, 30 minutes before ischemia and 24 hours after ischemia/reperfusion. […] To evaluate the effect of anti-EMMPRIN on the ischemic process/reperfusion, the antibodies were administered intravenously for four days before the surgical procedure, after which time the infarct size, cardiac function and EMMPRIN and MMP-9 expression were evaluated.
The heart of the animals was included in paraffin to subsequently obtain sections 4 microns thick as previously described [Tarin et al. mentioned ad supra]. The morphology of the heart was viewed by means of staining with hematoxylin and eosin, whereas collagen deposition was monitored by means of Masson's trichrome staining. […]
Additionally, nitration was detected by means of using anti-3-Nitrotyrosine in sections isolated from those same animals, confirming that the exogenously supplied NO was present in the hearts of the animals treated during the time of the experiment (FIG. 2D, right).

O=c1c2nc(Br)n([C@@H]3O[C@@H]4CO[P@@](O)(=S)O[C@H]4[C@H]3O)c2nc2[nH]c(-c3ccccc3)cn12 [Rp-8-Br-PET-cGMPS]
EMMPRIN promoter transcriptional activity (EMMPRIN promoter): significant increase | EMMPRIN promoter activity in combination with NO (EMMPRIN promoter; cardiomyocytes, pEMMPRIN-WT, PET + NO (100 μM DETA-NO)): partially restoring the negative effect of NO

NP-AP-9: nanoparticles with iron oxide core, single lipid-PEG layer with fluorochrome, and AP-9 peptide bound to the surface (YKLPGHHHHYRP; also: bound to surface of iron oxide nanoparticles with lipid-PEG layer and fluorochrome, attachment site not given here)
co-localization of nanoparticle signal with EMMPRIN signal ([1]; 20 μg/ml overnight): Co-localization | dose dependence of internalization (fluorescence signal) ([1]; 96-well plate, different concentrations overnight, IVIS imaging): dose-dependent manner | internalization into MAEC cells [1]: internalization | internalization into MAEC cells ([1]; listed as Nanoparticles containing AP-9): could be internalized

CC(=O)NC(C(=O)O)C(C)(C)SN=O (racemic) [SNAP, S-Nitroso-N-acetyl-D,L-penicillamine]
EMMPRIN promoter transcriptional activity (EMMPRIN promoter): results similar to those generated with DETA-NO

NCCN(CCN)/[N+]([O-])=N/O [DETA-NO, diethylenetriamine-NO]
EMMPRIN mRNA levels (EMMPRIN mRNA [2]): significantly reduced | EMMPRIN gene expression (EMMPRIN mRNA [3]): did not induce a significant effect | EMMPRIN mRNA stability (EMMPRIN mRNA [4]): significant reduction | EMMPRIN mRNA stability (EMMPRIN mRNA [5]): no effect whatsoever

Nc1nc2c(nc(Br)n2[C@@H]2O[C@@H]3COP(=O)(O)O[C@H]3[C@H]2O)c(=O)[nH]1 [8-Br-cGMP]
EMMPRIN promoter transcriptional activity (EMMPRIN promoter): same effect as the NO donor

NCCCNCCCCN(CCCN)/[N+]([O-])=N/O [Spermine-NONOate]
EMMPRIN promoter transcriptional activity (EMMPRIN promoter): results similar to those generated with DETA-NO

CC(=N)NCc1cccc(CN)c1 [1400W]
infarct size (iNOS; 1400W 2 mg/kg/day tail vein, vs control mice): significantly increase | MMP-9 levels (iNOS; 1400W 2 mg/kg/day, WT 1400WC vs WT 1400W): increase | EMMPRIN levels (iNOS; 1400W 2 mg/kg/day, vs control mice): increase
